Data from patent publication US20250090571A1, “CARD9 ATTENUATES AB PATHOLOGY AND MODIFIES MICROGLIAL RESPONSES IN AN ALZHEIMER’S DISEASE” (University of Virginia Patent Foundation, priority 2023, published 2025).

Experiments:
Assay type in all cases: in vivo, mouse
Card9−/−5×FAD mice [1] = experiment: Microglia depletion with PLX5622 chow, microgliosis and Aβ load in the cortex (CARD9-deficient); details: PLX5622 chow for 2.5 months, vs control chow
Procedure: (§1) As previously published (110), brain sections were blocked for 1 hour at room temperature with 2% donkey serum, 1% bovine serum albumin, 0.1% triton, 0.05% tween in PBS prior to incubation with primary antibodies. The primary antibodies were then diluted in this block overnight at 4° C. Brain sections were stained with anti-Aβ (D54D2, Cell Signaling, 1:300 dilution) to label plaques. To assess neuronal cell death, sections were stained with anti-NeuN (MAβ377, Millipore Sigma, 1:500 dilution) and TUNEL (Millipore Sigma, 11684795910, according to the manufacturer's instructions). In order to analyze microglia, sections were stained with IBA1 (ab5076, Abcam, 1:300 dilution). Microglial proliferation was assessed using Ki67-EF660 (SolA15, Thermo Fisher, 1:100 dilution). Microglial iron accumulation was measured using Ferritin Heavy Chain (PA5-27500, Thermo Fisher, 1:500). Following primary antibody incubation, sections were then washed 3 times for 10 minutes at room temperature in PBS and 0.05% tween-20. After washing, the brain sections were incubated in respective donkey Alexa Fluor 488, 594, 647 anti-rabbit, -goat, -rat, -streptavidin, and-mouse (Thermo Fisher, 1:1000 dilution) for 2 hours at room temperature. Once again, brain sections were washed 3 times for 10 minutes at room temperature. […] Images were analyzed using FIJI software or Imaris software (9.5.1). […]

5×FAD mice [2] = experiment: Microglia depletion with PLX5622 chow, microgliosis and Aβ load in the cortex; details: PLX5622 chow for 2.5 months, vs normal chow
Procedure: as §1

5×FAD mice [3] = experiment: Intrahippocampal injection of pustulan, Aβ load in the hippocampus by immunofluorescence; details: 2-month-old 5×FAD mice, 2 μg pustulan intrahippocampal, 7 days post-injection, vs vehicle-treated hemisphere
Procedure: As previously published (110), brain sections were blocked for 1 hour at room temperature with 2% donkey serum, 1% bovine serum albumin, 0.1% triton, 0.05% tween in PBS prior to incubation with primary antibodies. The primary antibodies were then diluted in this block overnight at 4° C. Brain sections were stained with anti-Aβ (D54D2, Cell Signaling, 1:300 dilution) to label plaques. To assess neuronal cell death, sections were stained with anti-NeuN (MAβ377, Millipore Sigma, 1:500 dilution) and TUNEL (Millipore Sigma, 11684795910, according to the manufacturer's instructions). In order to analyze microglia, sections were stained with IBA1 (ab5076, Abcam, 1:300 dilution). Microglial proliferation was assessed using Ki67-EF660 (SolA15, Thermo Fisher, 1:100 dilution). Microglial iron accumulation was measured using Ferritin Heavy Chain (PA5-27500, Thermo Fisher, 1:500). Following primary antibody incubation, sections were then washed 3 times for 10 minutes at room temperature in PBS and 0.05% tween-20. After washing, the brain sections were incubated in respective donkey Alexa Fluor 488, 594, 647 anti-rabbit, -goat, -rat, -streptavidin, and-mouse (Thermo Fisher, 1:1000 dilution) for 2 hours at room temperature. Once again, brain sections were washed 3 times for 10 minutes at room temperature. […] Images were analyzed using FIJI software or Imaris software (9.5.1).
5×FAD and Card9^−/−5×FAD mice were anesthetized with a ketamine/xylazine cocktail before receiving a bilateral hippocampal injection of 2 μl of vehicle or 2 μg pustulan into the right and left hemisphere of the hippocampus (at +2 mm lateral, -2 mm posterior, and −2 mm ventral relative to the intersection of the coronal and sagittal suture (bregma) at a rate of 200 nl/min) using a stereotaxic frame (51730U, Stoelting) and nanoliter injector (NL2010MC2T, World Precision Instruments). […] Images were analyzed using FIJI software or Imaris software (9.5.1). […]

Card9−/−5×FAD mice [4] = experiment: Intrahippocampal injection of pustulan, Aβ load in the hippocampus by immunofluorescence (CARD9-deficient control); details: 2-month-old Card9−/−5×FAD mice, 2 μg pustulan intrahippocampal, 7 days post-injection, vs vehicle-treated hemisphere
Procedure: as §1

Compound | Aβ plaque load in the cortex (Card9−/−5×FAD mice [1]) | Aβ plaque load in the cortex (5×FAD mice [2]) | Aβ coverage in the hippocampus (5×FAD mice [3]) | Aβ plaque volume in the hippocampus (5×FAD mice [3]) | number of Aβ plaques in the hippocampus (5×FAD mice [3]) | levels of Aβ in the hippocampus (Card9−/−5×FAD mice [4])
COc1ncc(F)cc1CNc1ccc(Cc2c[nH]c3ncc(C)cc23)c(F)n1 [PLX5622] | did not significantly impact | significantly increased |  |  |  | 
Pustulan |  |  | significantly reduced | lower plaque volume | fewer plaques | comparable levels of Aβ regardless of treatment
